These results are taken from US10301267B2, “Compounds” (AstraZeneca AB, priority 2006, dated 2019).

The subject of assay [1] is bFGF stimulated Erk phosphorylation in NIH 3T3 cells. Put plainly: Cell pErk - growth factor stimulated Erk phosphorylation. The assay is classed as cell-based. The following applies: Mus musculus. The source says:
Cell Assays Cell pErk—Growth Factor Stimulated Erk Phosphorylation
These and other assays were used to evaluate the ability of a test compound to inhibit growth factor stimulated cellular signalling in mammalian cell lines. This was achieved by measuring the amount of receptor tyrosine kinase regulated Erk phosphorylation within a cell following compound treatment.
NIH 3T3 (ECACC, 93061524) cells were routinely passaged in DMEM (Gibco BRL, 41966) plus 10% foetal calf serum (FCS), 1% L-glutamine (Gibco BRL, 25030) to a confluence not greater than 80%. To undertake the assay, NIH 3T3's were seeded at 1×10^4 cells/well in DMEM plus 10% foetal calf serum, 1% L-glutamine in 96 well plates (Costar, 3904) and incubated at 37° C. (+5% CO2) in a humidified incubator. Once the cells had fully adhered (typically following 4-5 hours incubation) the media was removed from each well and the cells gently washed with 100 μl warm serum free media. 90 μl of serum free DMEM plus 1% L-glutamine was then added to each well and the plates were returned to a humidified 37° C. (+5% CO2) incubator. The following day, the plates were dosed with 10 μl compound (diluted from 10 mM stock in DMSO using serum free DMEM) and the plates were returned to a humidified 37° C. (+5% CO2) incubator for one hour. NIH 3T3 cells were then stimulated with a final concentration of 3 ng/ml bFGF (Sigma, F0291) for 20 minutes at 37° C. Following stimulation the cells were fixed by adding formaldehyde (4% v/v final concentration) and incubating at room temperature for 20 minutes. The fixative solution was then removed and the wells were washed twice with 100 μl phosphate buffered saline (PBS/A) before permeabilising the cells by the addition of 50 μl/well 0.1% triton/PBS/A for 10 minutes at room temperature. The permeabilisation solution was then removed and the cells washed twice more with 100 μl/well PBS/A before the addition of 50 μl/well anti-phospho p44/42 antibody (Cell Signalling Technology, 9106), diluted 1/500 with PBS/A plus 10% FCS. The anti-phospho p44/42 antibody recognises Erk phosphorylated at threonine 202 and tyrosine 204. Following incubation at room temperature for 2 hours, the antibody solution was removed and the wells were washed twice with 100 μl/well PBS/A. 50 μl/well 1/250 goat anti-mouse alexa fluor 488 secondary antibody (Molecular Probes, A11001) and 1/10000 Hoescht (Molecular Probes, H-3570) diluted with PBS/A plus 10% FCS was added and the plate incubated in the dark at room temperature for one hour. Finally, the plates were washed three times with 100 μl/well PBS/A, leaving the final wash in the wells before sealing the plates. The plates were read at 350 nm and 488 nm using an Arrayscan (Cellomics). […] IC50 value is the concentration of test compound that inhibits 50% of Erk phosphorylation.

The target in assay [2] is T1, His6-tagged FGFR kinase domain (Homo sapiens, UniProt P11362, C488A/C584S).
T1 construct: FGFR kinase domain (amino acids 458-765, C488A, C584S) N-terminally fused to a His6-tag and TEV cleavage site; His6-tag plus linker and TEV cleavage site (printed as X1); made in house
Description: FGFR Kinase assay - Elisa. The assay is classed as biochemical. Here is the method:
To determine inhibition of FGFR activity, kinase assays were conducted using ELISA (Enzyme-Linked Immunosorbent Assay) technology.
Kinase activity assays were performed in 384-well polypropylene plates (Matrix, Catalogue No. 4311. Matrix are part of Thermo Fisher Scientific, 22 Friars Drive, Hudson, N.H. 03051, USA) with a total volume of 40 μl in each well. Each well was coated with 2 μg of polyEAY substrate (Sigma, Catalogue No. P3899) at 4° C. overnight. The plates were then washed once with 100 μl PBS and once with 100 μl 50 mM HEPES (pH 7.4) prior to the addition of the kinase assay reagents. Reactions contained His6-tagged FGFR kinase domain (FGFR kinase domain (amino acids 458-765, C488A, C584S) N-terminally fused to a His6-tag and TEV cleavage site encoded by the following sequence; [[…]]. The final alanine denotes the start of the FGFR protein sequence. The resultant protein was expressed and purified based on Mohammadi et al, Cell Vol 86, 577-587 (1996). Each kinase reaction contained 0.1 ng His6-tagged FGFR kinase domain, 50 mM HEPES (pH 7.4), 0.1 mM Na3VO4, 0.1 mM DTT, 0.05% (v/v) Triton X100, 20 mM MgCl2, 160 μM ATP. Various concentrations of test compounds were each added in 5% (v/v) DMSO to yield a final assay DMSO concentration of 1.25% (v/v). The kinase reactions were incubated at room temperature for 45 minutes and stopped by washing the plate three times with 100 μl PBS plus 0.05% Tween. 40 μl of a one in 10000 dilution of 4G10-HRP antibody (Upstate Biotechnology, UBI 16-105. Upstate are part of Millipore Corporation, 290 Concord Road, Billerca Mass. 01821 USA) made up in 0.5% (w/v) BSA/PBS was then added to each well and the plates incubated at room temperature for one hour. Following this, the plates were then washed repeatedly with 100 μl PBS plus 0.05% Tween to remove all traces of the antibody solution. 40 μl of 50 μg/ml 3,3′,5,5′-Tetramethylbenzidine (Sigma, Catalogue No. T2885), 0.05M phosphate-citrate buffer, containing 0.03% sodium perborate was added to each well and the plates incubated at room temperature for twelve minutes. The colour reaction was stopped by the addition of 20 μl 2M H2SO4 and the plates read at 450 nm on a Spectrafluor Plus (Tecan Trading AG, Switzerland). In the assay, compounds were tested at a range of concentrations.
Percentage inhibition at 1 uM, as expressed herein, is a calculated value based on the curve fit that was generated experimentally. From the fitted curve plot, the effect of compound at a concentration of 1 uM was calculated as a percentage inhibition. The IC50 value is the concentration of test compound that inhibits 50% of FGFR kinase activity.

Assay [3] addresses T2, FGFR1 active kinase (Homo sapiens, UniProt P11362). Put plainly: FGFR Kinase assay - Caliper. For FGFR Kinase assay - Caliper, IC50: 408 µM ATP. The assay is classed as biochemical.
For assay [4], the target named is T2, FGFR1 active kinase. Description: FGFR Kinase assay - Caliper Echo Dosing. It is filed as biochemical. Conditions: FGFR1 7.2 nM, 408 uM ATP, acoustic dosing; geometric mean of n.
Where [5] appears, read: NIH3T3, 3 ng/ml bFGF, read-out: Activity class (Cell pErk).
[6] abbreviates: FGFR inhibition test, Elisa, read-out: Activity class (FGFR Kinase assay - Elisa).
The mark [7] stands for this setting: polyEAY substrate, 160 μM ATP, read-out: FGFR Kinase assay - Elisa, IC50.
[8] abbreviates: FGFR1 […], 408 uM ATP, mean of n as printed, read-out: FGFR Kinase assay - Caliper, IC50.
Where [9] appears, read: FGFR inhibition test, Caliper, read-out: Activity class (FGFR Kinase assay - Caliper).

SMILES strings stand for the structures. Like-named read-outs stand apart in the source and are kept apart here.

T1 sequence (P11362 458-765 C488A/C584S): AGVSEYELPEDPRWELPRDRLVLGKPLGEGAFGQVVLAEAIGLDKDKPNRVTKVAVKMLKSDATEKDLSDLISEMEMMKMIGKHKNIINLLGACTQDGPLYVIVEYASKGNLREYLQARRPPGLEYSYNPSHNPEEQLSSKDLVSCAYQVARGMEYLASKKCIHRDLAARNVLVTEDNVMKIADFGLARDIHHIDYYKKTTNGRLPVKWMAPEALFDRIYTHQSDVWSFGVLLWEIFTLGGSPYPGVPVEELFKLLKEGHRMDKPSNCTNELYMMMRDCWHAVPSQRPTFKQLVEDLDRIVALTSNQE
T2 sequence (P11362 22-822): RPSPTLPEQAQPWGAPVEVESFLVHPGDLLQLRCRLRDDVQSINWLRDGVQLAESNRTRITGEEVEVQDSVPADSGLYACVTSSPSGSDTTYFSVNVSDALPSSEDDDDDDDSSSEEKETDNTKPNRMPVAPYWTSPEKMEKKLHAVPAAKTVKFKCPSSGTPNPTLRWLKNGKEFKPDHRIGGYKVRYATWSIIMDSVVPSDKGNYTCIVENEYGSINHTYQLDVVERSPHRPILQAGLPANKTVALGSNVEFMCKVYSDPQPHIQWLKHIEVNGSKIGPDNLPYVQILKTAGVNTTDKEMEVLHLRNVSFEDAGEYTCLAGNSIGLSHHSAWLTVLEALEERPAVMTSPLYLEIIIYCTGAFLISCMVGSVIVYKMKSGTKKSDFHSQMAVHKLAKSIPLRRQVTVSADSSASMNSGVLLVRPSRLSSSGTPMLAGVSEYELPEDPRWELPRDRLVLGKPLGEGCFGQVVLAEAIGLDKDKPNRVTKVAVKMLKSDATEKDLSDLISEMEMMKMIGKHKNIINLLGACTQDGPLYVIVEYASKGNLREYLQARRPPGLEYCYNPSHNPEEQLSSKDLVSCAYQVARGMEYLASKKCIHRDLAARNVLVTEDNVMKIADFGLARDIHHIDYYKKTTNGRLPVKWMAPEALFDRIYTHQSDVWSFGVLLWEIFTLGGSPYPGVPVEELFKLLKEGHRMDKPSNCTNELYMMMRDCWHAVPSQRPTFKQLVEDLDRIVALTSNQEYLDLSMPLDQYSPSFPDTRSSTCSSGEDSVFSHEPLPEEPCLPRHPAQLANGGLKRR

On to `CN1CCN(c2ccc(C(=O)Nc3cc(CCc4ccccc4)n[nH]3)cc2)CC1` [Example 1, 4-(4-methylpiperazin-1-yl)-N-(5-phenethyl-2H-pyrazol-3-yl)benzamide], for which the IC50 in assay [1] (setting [5]) is 300 to 1000 nM; in assay [2] (setting [6]) it was under 300 nM; in assay [2] (setting [7]), 220 nM.
Take `COc1cc(CCc2cc(NC(=O)c3ccccc3)[nH]n2)cc(OC)c1` [Example 2, N-[5-[2-(3,5-dimethoxyphenyl)ethyl]-2H-pyrazol-3-yl]benzamide]: the IC50 is 140 nM in assay [3] (setting [8]) and under 300 nM in assay [1] (setting [5]).
`CN1CCN(c2ccc(C(=O)Nc3cc(CCc4cccnc4)n[nH]3)cc2)CC1` [Example 7, 4-(4-methylpiperazin-1-yl)-N-[5-(2-pyridin-3-ylethyl)-2H-pyrazol-3-yl]benzamide]: the IC50 in assay [3] (setting [8]) was 47 nM; in assay [3] (setting [9]), under 300 nM; in assay [1] (setting [5]) it was 1000 to 30000 nM; in assay [2] (setting [6]) it was under 300 nM.
Regarding `CN1CCN(c2ccc(C(=O)Nc3cc(CCc4ccco4)n[nH]3)cc2)CC1` [Example 8, N-[5-[2-(2-furyl)ethyl]-2H-pyrazol-3-yl]-4-(4-methylpiperazin-1-yl)benzamide], the IC50 in assay [3] (setting [9]) is under 300 nM; in assay [1] (setting [5]) it was under 300 nM; in assay [2] (setting [6]), under 300 nM; in assay [2] (setting [7]), 79.5 nM.
For `CN1CCN(c2ccc(C(=O)Nc3cc(CCc4ccoc4)n[nH]3)cc2)CC1` [Example 9, N-[5-[2-(3-furyl)ethyl]-2H-pyrazol-3-yl]-4-(4-methylpiperazin-1-yl)benzamide], the IC50 in assay [3] (setting [8]) was 137 nM; in assay [3] (setting [9]), under 300 nM; in assay [1] (setting [5]) it was 300 to 1000 nM; in assay [2] (setting [6]), under 300 nM.
Turning to `COc1cc(CCc2cc(NC(=O)c3ccc(N4CCN(C)CC4)cc3)[nH]n2)cc(OC)c1` [Example 10, N-[5-[2-(3,5-dimethoxyphenyl)ethyl]-2H-pyrazol-3-yl]-4-(4-methylpiperazin-1-yl)benzamide], the IC50 in assay [4] is 0.85 nM; in assay [1] (setting [5]), under 300 nM; in assay [2] (setting [6]), under 300 nM.
With `COc1cccc(CCc2cc(NC(=O)c3ccc(N4CCN(C)CC4)cc3)[nH]n2)c1` [Example 11, N-[5-[2-(3-methoxyphenyl)ethyl]-2H-pyrazol-3-yl]-4-(4-methylpiperazin-1-yl)benzamide], the IC50 in assay [1] (setting [5]) is under 300 nM; in assay [2] (setting [6]) it was under 300 nM; in assay [2] (setting [7]), 82.8 nM.
In the case of `CCNc1ccc(C(=O)Nc2cc(CCc3cccc(OC)c3)n[nH]2)cn1` [Example 18, 6-Ethylamino-N-{5-[2-(3-methoxy-phenyl)-ethyl]-2H-pyrazol-3-yl}-nicotinamide], the IC50 is 540 nM in assay [3] (setting [8]); 300 to 1000 nM in assay [3] (setting [9]); 300 to 1000 nM in assay [1] (setting [5]); 877 nM in assay [1] (NIH3T3, footnote example, read-out: Cell pErk, value in table footnote); 300 to 1000 nM in assay [2] (setting [6]).
